Measured values taken from ChEMBL document CHEMBL3885861, “Open TG-GATES”.

Organism: Rattus norvegicus
Experiment: Open TG-GATES - Regimen: Single
Format: toxicity, organism-based, Sprague-Dawley
Set-up: regimen Single, gender Male, age 6 weeks
Settings: in vivo, po, 2000 mg/kg, route gavage, dose level High; for APTT / Bas / Eos / Fbg / Hb / Ht / Lym / MCH / MCHC / MCV / Mono / Neu / PT / Plat / RBC / Ret / WBC: tissue Blood; for KIDNEY_L / KIDNEY_R / KIDNEY_TOTAL: tissue Kidney; for LIVER: tissue Liver; for A/G / ALP / ALT / AST / BUN / CRE / Ca / Cl / DBIL / GLC / IP / K / LDH / Na / PL / RALB / TBIL / TC / TG / TP / gamma-GTP: tissue Plasma

NNC(=O)c1ccncc1 [ISONIAZID]
TERMINAL_BW (3 h): 221 g | APTT (3 h): 20.8 s | Bas (3 h): 0% | Eos (3 h): 1.2% | Fbg (3 h): 218.2 mg/dL | Hb (3 h): 13.8 g/dL | Ht (3 h): 38.4% | Lym (3 h): 73.8% | MCH (3 h): 22.2 pg | MCHC (3 h): 36% | MCV (3 h): 61.7 fL | Mono (3 h): 2% | Neu (3 h): 22.2% | PT (3 h): 12.3 s | Plat (3 h): 117.2 x10_4/uL | RBC (3 h): 621.8 x10_4/ul | Ret (3 h): 7.9% | WBC (3 h): 51.3 x10_2/uL | KIDNEY_L (3 h): 1 g | KIDNEY_R (3 h): 1 g | KIDNEY_TOTAL (3 h): 1.9 g | LIVER (3 h): 9.8 g | A/G (3 h): 1.7 | ALP (3 h): 760.4 IU/L | ALT (3 h): 31.4 IU/L | AST (3 h): 66.4 IU/L | BUN (3 h): 8.8 mg/dL | CRE (3 h): 0.4 mg/dL | Ca (3 h): 10.4 mg/dL | Cl (3 h): 102.4 meq/L | DBIL (3 h): 0.062 mg/dL | GLC (3 h): 221.8 mg/dL | IP (3 h): 10.2 mg/dL | K (3 h): 4 meq/L | LDH (3 h): 231.8 IU/L | Na (3 h): 141.2 meq/L | PL (3 h): 136 mg/dL | RALB (3 h): 3.6 g/dL | TBIL (3 h): 0.1 mg/dL | TC (3 h): 72.8 mg/dL | TG (3 h): 58.8 mg/dL | TP (3 h): 5.7 g/dL | gamma-GTP (3 h): 0.8 IU/L | TERMINAL_BW (6 h): 217.4 g | APTT (6 h): 19.1 s | Bas (6 h): 0% | Eos (6 h): 0.8% | Fbg (6 h): 231 mg/dL | Hb (6 h): 13.7 g/dL | Ht (6 h): 38.1% | Lym (6 h): 68.4% | MCH (6 h): 22 pg | MCHC (6 h): 36% | MCV (6 h): 61 fL | Mono (6 h): 1.6% | Neu (6 h): 28.2% | PT (6 h): 12.2 s | Plat (6 h): 128.8 x10_4/uL | RBC (6 h): 625.4 x10_4/ul | Ret (6 h): 8.1% | WBC (6 h): 60.7 x10_2/uL | KIDNEY_L (6 h): 1 g | KIDNEY_R (6 h): 1 g | KIDNEY_TOTAL (6 h): 1.9 g | LIVER (6 h): 9.6 g | A/G (6 h): 1.5 | ALP (6 h): 774.2 IU/L | ALT (6 h): 27.8 IU/L | AST (6 h): 43.8 IU/L | BUN (6 h): 8.8 mg/dL | CRE (6 h): 0.5 mg/dL | Ca (6 h): 10.4 mg/dL | Cl (6 h): 104.2 meq/L | DBIL (6 h): 0.062 mg/dL | GLC (6 h): 222.4 mg/dL | IP (6 h): 9.2 mg/dL | K (6 h): 3.7 meq/L | LDH (6 h): 185.6 IU/L | Na (6 h): 141.8 meq/L | PL (6 h): 151.2 mg/dL | RALB (6 h): 3.5 g/dL | TBIL (6 h): 0.1 mg/dL | TC (6 h): 78.2 mg/dL | TG (6 h): 47.8 mg/dL | TP (6 h): 5.9 g/dL | gamma-GTP (6 h): 1 IU/L | TERMINAL_BW (9 h): 217 g | APTT (9 h): 18.6 s | Bas (9 h): 0.2% | Eos (9 h): 1% | Fbg (9 h): 230 mg/dL | Hb (9 h): 14 g/dL | Ht (9 h): 38.5% | Lym (9 h): 70.4% | MCH (9 h): 21.7 pg | MCHC (9 h): 36.3% | MCV (9 h): 59.8 fL | Mono (9 h): 1.8% | Neu (9 h): 26% | PT (9 h): 12.5 s | Plat (9 h): 131.2 x10_4/uL | RBC (9 h): 644 x10_4/ul | Ret (9 h): 7% | WBC (9 h): 61.3 x10_2/uL | KIDNEY_L (9 h): 1 g | KIDNEY_R (9 h): 1 g | KIDNEY_TOTAL (9 h): 2.1 g | LIVER (9 h): 9 g | A/G (9 h): 1.7 | ALP (9 h): 823.6 IU/L | ALT (9 h): 23.8 IU/L | AST (9 h): 40.8 IU/L | BUN (9 h): 8.8 mg/dL | CRE (9 h): 0.4 mg/dL | Ca (9 h): 10.5 mg/dL | Cl (9 h): 104 meq/L | DBIL (9 h): 0.066 mg/dL | GLC (9 h): 211 mg/dL | IP (9 h): 9.2 mg/dL | K (9 h): 3.6 meq/L | LDH (9 h): 195.4 IU/L | Na (9 h): 142.4 meq/L | PL (9 h): 151.8 mg/dL | RALB (9 h): 3.7 g/dL | TBIL (9 h): 0.1 mg/dL | TC (9 h): 76.2 mg/dL | TG (9 h): 78 mg/dL | TP (9 h): 5.9 g/dL | gamma-GTP (9 h): 1 IU/L | TERMINAL_BW (24 h): 212.5 g | APTT (24 h): 18.8 s | Bas (24 h): 0.2% | Eos (24 h): 0.8% | Fbg (24 h): 196 mg/dL | Hb (24 h): 14.7 g/dL | Ht (24 h): 40.4% | Lym (24 h): 75.4% | MCH (24 h): 22.4 pg | MCHC (24 h): 36.4% | MCV (24 h): 61.6 fL | Mono (24 h): 3.4% | Neu (24 h): 19.6% | PT (24 h): 14.4 s | Plat (24 h): 152.8 x10_4/uL | RBC (24 h): 656.4 x10_4/ul | Ret (24 h): 2.8% | WBC (24 h): 41.4 x10_2/uL | KIDNEY_L (24 h): 1.1 g | KIDNEY_R (24 h): 1.1 g | KIDNEY_TOTAL (24 h): 2.2 g | LIVER (24 h): 9.5 g | A/G (24 h): 1.8 | ALP (24 h): 761.4 IU/L | ALT (24 h): 12 IU/L | AST (24 h): 25.8 IU/L | BUN (24 h): 14 mg/dL | CRE (24 h): 0.5 mg/dL | Ca (24 h): 10.1 mg/dL | Cl (24 h): 103.8 meq/L | DBIL (24 h): 0.06 mg/dL | GLC (24 h): 205.4 mg/dL | IP (24 h): 8.4 mg/dL | K (24 h): 3.9 meq/L | LDH (24 h): 203.8 IU/L | Na (24 h): 143 meq/L | PL (24 h): 114.2 mg/dL | RALB (24 h): 3.5 g/dL | TBIL (24 h): 0.1 mg/dL | TC (24 h): 47 mg/dL | TG (24 h): 90 mg/dL | TP (24 h): 5.5 g/dL | gamma-GTP (24 h): 0.8 IU/L
